PMC2375326, “In vitro evaluation of amino acid prodrugs of novel antitumour 2-(4-amino-3-methylphenyl)benzothiazoles” (British Journal of Cancer, 2002)

Columns and labels:
[1] = tested on: CYP1A1 protein expression in MCF-7 cells; assay: Western blot of CYP1A1 protein, MCF-7 lysates; assay type: cell-based, human; conditions: 1 μM, 24 h
Experimental: (§1) Whole cell lysates were prepared for examination of CYP1A1 protein expression from untreated MCF-7, IGROV-1 and HCT 116 cultures and following exposure of cells to compounds 1, 2, 2a, 2b, 3, 3a, 3b, 4, 4a and 4b. Following protein determination (n=3, [Bradford, 1976]) and addition of sample buffer, samples were boiled at 95°C for 5 min and solubilised proteins (50 μg) were separated by sodium dodecyl sulphate (SDS) polyacrylamide gel (10%) electrophoresis. Proteins were electroblotted to polyvinylidene difluoride (PVDF) membranes and probed for CYP1A1 protein with polyclonal antiserum specific for human CYP1A1/1A2 (Gentest Corporation). Secondary antibody was conjugated to alkaline phosphatase, and CYP1A1 was detected following brief (<10 min) incubation with bromochloroindolyl phosphate and nitro-blue tetrazolium in alkaline phosphatase buffer. Molecular weight markers and a positive control of recombinant CYP1A1 (Gentest Corporation), included in all blots, confirmed detection of 52 kDa CYP1A1 protein.

[2] = tested on: CYP1A1 activity (EROD) in MCF-7 cells; assay: Induction of EROD activity in lysates of treated MCF-7 cells; assay type: cell-based, human; conditions: lysates of MCF-7 cells treated with 1 μM, 24 h; negligible activity in untreated lysates; mean of three, s.d. <10%
Experimental: (§2) A sensitive and rapid fluorometric assay was used to measure EROD activity ([Burke et al, 1994]). Incubation mixtures (total 1 ml) consisted of 100 mM Tris-HCl (pH 7.4), 50 μM MgCl2, 100 μM 7-ethoxyresorufin and 100 μl cell homogenate. Homogenates were prepared following treatment of cells for 24 h with compounds 1, 2, 2a, 2b, 3, 3a, 3b, 4, 4a and 4b or vehicle alone and protein content determined (n=3). Thus induction of ethoxyresorufin O-deethylation by agents under study, catalysed by CYP1A1 activity, could be determined. Alternatively, microsomes expressing recombinant CYP1A1 (0.1 mg ml^−1) provided the enzyme source for EROD catalysis, in the presence or absence of drug, in order to determine inhibition of CYP1A1 activity by compounds 1, 2, 2a, 2b, 3, 3a, 3b, 4, 4a and 4b. Incubation mixtures were pre-incubated for 5 min at 37°C before initiation of reaction by addition of NADPH (500 μM). Following further incubations at 37°C (30 min for cell homogenates, 15 min for CYP1A1 microsomes), reactions were terminated by addition of 3 ml ice-cold acetonitrile. Reaction mixtures were centrifuged (1400 r.p.m., 10 min) before analyses of supernatants. Fluorescence was read on a Perkin-Elmer LS-5 luminescence spectrometer (excitation, 530 nm; emission 585 nm). Estimation of resorufin reaction product (pmoles mg^−1 protein, pmoles 100 μg^−1 microsomes), as a measure of CYP1A1 activity, was determined following performance of a resorufin standard curve.

MCF-7 cells = assay: Prodrug uptake, conversion and metabolism (HPLC of media), MCF-7; assay type: in vitro ADME, human; conditions: for Biotransformation products of liberated parent amine in media: prodrug 10 μM, days 1–7
Experimental: (§3) MCF-7 cells were seeded into 25 ml flasks at appropriate densities (5×10^5–5×10^6). After 24 h, medium was changed and drug introduced at a final concentration of 10 μM. Media samples, collected from flasks at time zero and 24 h intervals, were mixed with 1.5-fold volumes of high performance liquid chromatography (HPLC) grade acetonitrile to precipitate protein and centrifuged at 14 000 g for 5 min. Supernatants (600 μl) were mixed with 400 μl 10% acetonitrile in 1% acetic acid and analysed by HPLC. The system consisted of Beckman System Gold equipment (solvent module 128, autosampler 507e and multiple wavelength UV detector 168). Separation of parent compounds and biotransformation products was effected at room temperature on a Phenomenex Aqua C18 reversed-phase column (150×4.6 mm). The mobile phase was formed by increasing, then decreasing the acetonitrile concentration in 1% acetic acid over 20 min by mixing two solutions: acetonitrile-water-acetic acid (10 : 90 : 1, v v^−1) and acetonitrile-water-acetic acid (80 : 20 : 1 v v^−1) and delivered at a flow rate of 1 ml min^−1. Compounds were detected at 324 nm.

A498 renal cells = assay: Prodrug uptake, conversion and metabolism (HPLC of media), A498; assay type: in vitro ADME, human
Experimental: as §3, with “The mobile phase was formed by increasing, then decreasing the acetonitrile concentration in 1% acetic acid over 20 min by mixing two solutions: acetonitrile-water-acetic acid (10 : 90 : 1, v v^−1) and acetonitrile-water-acetic acid (80 : 20 : 1 v v^−1) and delivered at a flow rate of 1 ml min^−1.” left out
(§4) Uptake and metabolism of compounds 1a and 1b were examined in sensitive breast (MCF-7 and T47D) and insensitive renal (A498) cells using HPLC conditions which allow simultaneous detection of prodrug, parent amine and metabolites. When incubated at 0.1, 1 or 10 μM over 7 days at 37°C, the lysyl-amide compound 1a was most readily removed from the media supporting MCF-7 and T47D cells (Figure 2

T47D breast cells = assay: Prodrug uptake, conversion and metabolism (HPLC of media), T47D; assay type: in vitro ADME, human
Experimental: as §3, with “The mobile phase was formed by increasing, then decreasing the acetonitrile concentration in 1% acetic acid over 20 min by mixing two solutions: acetonitrile-water-acetic acid (10 : 90 : 1, v v^−1) and acetonitrile-water-acetic acid (80 : 20 : 1 v v^−1) and delivered at a flow rate of 1 ml min^−1.” left out
as §4

[3] = tested on: MCF-7 (ER+) human derived breast carcinoma cells; assay: Growth inhibitory assay (MTT), MCF-7; assay type: cell-based; conditions: MCF7, ER+ MCF-7, 3 days (72 h) treatment, n=8, representative mean, ^a = biphasic dose response
Experimental: (§5) Prodrugs were prepared as 10 mM top stocks, dissolved in dimethylsulphoxide (DMSO) or sterile ddH2O, and stored at 4°C, protected from light for a maximum period of 4 weeks. MCF-7 (ER+) and MDA 468 (ER−) human derived breast carcinoma cells, cultivated at 37°C in an atmosphere of 5% CO2 in RPMI 1640 medium supplemented with 2 mM L-glutamine and 10% foetal calf serum, were routinely subcultured twice weekly to maintain continuous logarithmic growth. Cells were seeded into 96-well microtiter plates at a density of 5×10^3 per well and allowed 24 h to adhere before drugs were introduced (final concentration 0.1 nM–100 μM, n=8). Serial drug dilutions were prepared in medium immediately prior to each assay. Viable cell masses at the time of drug addition (time-zero), and following 72 h drug exposure were determined by cell-mediated 3-(4,5-dimethylthiazol-2-yl)-2,5-diphenyltetrazolium bromide (MTT) reduction. MTT was added to each well (final concentration 400 μg ml^−1) and plates were incubated at 37°C for 4 h to allow reduction of MTT by viable cell dehydrogenases to an insoluble formazan product. Well supernatants were aspirated and cellular formazan solubilised by addition of DMSO : glycine buffer (pH 10.5) (4 : 1). Cell growth as well as drug activity were determined by measuring absorbance at 550 nm using an Anthos Labtec systems plate reader.

CYP1A1 [4] = biological target: T1, CYP1A1 (Homo sapiens, UniProt P04798); set-up: method as in Chua et al, 2000; conditions: ref Chua et al, 2000; cited from earlier work
T1 sequence (P04798 1-512): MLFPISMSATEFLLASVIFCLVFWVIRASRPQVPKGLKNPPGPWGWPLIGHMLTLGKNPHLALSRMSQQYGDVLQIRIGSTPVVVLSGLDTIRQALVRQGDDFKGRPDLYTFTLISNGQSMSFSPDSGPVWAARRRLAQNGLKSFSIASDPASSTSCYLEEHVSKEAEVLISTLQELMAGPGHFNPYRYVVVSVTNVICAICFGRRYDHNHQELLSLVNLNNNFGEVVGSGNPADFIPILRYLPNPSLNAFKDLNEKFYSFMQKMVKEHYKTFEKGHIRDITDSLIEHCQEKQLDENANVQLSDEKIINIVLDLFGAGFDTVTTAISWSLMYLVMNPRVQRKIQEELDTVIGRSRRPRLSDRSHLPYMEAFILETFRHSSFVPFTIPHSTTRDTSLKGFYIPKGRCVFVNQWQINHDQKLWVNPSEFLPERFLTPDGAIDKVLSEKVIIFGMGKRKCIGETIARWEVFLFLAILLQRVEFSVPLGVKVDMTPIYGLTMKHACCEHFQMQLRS

CYP1A1 [5] = biological target: T1, CYP1A1; assay: Inhibition of recombinant CYP1A1 microsomal EROD activity; assay type: biochemical; conditions: microsomes expressing recombinant CYP1A1, pH 7.4, probe 7-ethoxyresorufin (100 μM); 30 μM agent; incubates without drug = 100% activity; mean of three, s.d. <10%; read-out: Microsomal CYP1A1 EROD activity (% control)
Experimental: as §2

[6] = tested on: CYP1A1 protein expression in HCT 116 cells; assay: Western blot of CYP1A1 protein, HCT 116 lysates; assay type: cell-based, human
Experimental: as §1

[7] = tested on: MDA 468 (ER−) human derived breast carcinoma cells; assay: Growth inhibitory assay (MTT), MDA 468; assay type: cell-based; conditions: Breast carcinoma cell, ER− MDA 468, 3 days (72 h) treatment, n=8, representative mean, ^a = biphasic dose response
Experimental: as §5

[8] = Stability in human plasma; assay type: in vitro ADME; conditions: 37°C; no free amine detected
Text: Data have been presented describing the in vitro biological properties of alanyl and lysyl amide derivatives of 2-(4-amino-3-methylphenyl)benzothiazoles. Prodrugs are rapidly depleted from nutrient media, generating their parent species in the presence of cells (Figures 2 and 3). In the absence of cells, no spontaneous hydrolysis of the amide bond occurs to release the amine from its amino acid salt. The cleavage of amino acid amides may be catalysed by ubiquitously expressed aminopeptidases, but subsequent bioactivating steps, essential for the mechanism of action of aminophenylbenzothiazoles, take place selectively in sensitive cell lines (e.g. Figure 5). Compounds 1a and 1b were stable when incubated at 37°C with human plasma; specifically, no free amine was detected.

Structure (SMILES)	CYP1A1 protein expression (Western blot) [1]	Induction EROD activity [2]	Time of peak media level of regenerated parent amine (MCF-7 cells; regenerated from amide prodrugs, 7 day incubation)	Removal of effluxed parent amine from media (A498 renal cells; inherently resistant A498 cells, 7 day incubation)	Time of peak media level of regenerated parent amine (T47D breast cells; T47D cells, regenerated from amide prodrugs, 7 day incubation)	GI50 [3]	activity at 15 min, 30 μM (CYP1A1 [5])	CYP1A1 protein expression (Western blot) [6]	GI50 [7]	Hydrolysis of prodrug to parent amine (A498 renal cells; 10 μM, insensitive A498 renal cells, 37°C)	Hydrolysis of prodrug to parent amine (T47D breast cells; 10 μM, sensitive ER+ T47D breast cells, 37°C)	Stability in human plasma [8]	Biotransformation products of liberated parent amine in media (MCF-7 cells)	Inhibition of CYP1A1 microsome activity (CYP1A1 [4])
Cc1cc(-c2nc3ccccc3s2)ccc1NC(=O)[C@H](C)N [Compound 1a]	–	–	–	–	–	0.32 nM	–	–	39.9 nM	rapidly and efficiently hydrolysed	rapidly and efficiently hydrolysed	stable	–	–
Cc1cc(-c2nc3cc(F)ccc3s2)ccc1NC(=O)[C@H](C)N [Compound 2a]	induced	28.37 nM resorufin mg^-1 protein	–	–	–	5.8 nM	40.6%	–	37.7 nM	–	–	–	–	–
Cc1cc(-c2nc3ccc(F)cc3s2)ccc1NC(=O)[C@@H](N)CCCCN [Compound 3b]	induced	19.88 nM resorufin mg^-1 protein	–	–	–	147 nM	47%	–	328 nM	–	–	–	–	–
Cc1cc(-c2nc3cc(F)c(F)cc3s2)ccc1N [Compound 4]	induced	32.02 nM resorufin mg^-1 protein	–	–	–	< 0.1 nM	43.1%	–	3.55 nM	–	–	–	emergence of an oxidative metabolite	–
Cc1cc(-c2nc3cc(F)c(F)cc3s2)ccc1NC(=O)[C@H](C)N [Compound 4a]	induced	17.09 nM resorufin mg^-1 protein	–	–	–	33 nM	41.9%	–	220 nM	–	–	–	–	–

Further lines, with some results ahead:

CYP1A1 protein expression (Western blot) [1]	Induction EROD activity [2]	Time of peak media level of regenerated parent amine (MCF-7 cells; regenerated from amide prodrugs, 7 day incubation)	Removal of effluxed parent amine from media (A498 renal cells; inherently resistant A498 cells, 7 day incubation)	Time of peak media level of regenerated parent amine (T47D breast cells; T47D cells, regenerated from amide prodrugs, 7 day incubation)	GI50 [3]	activity at 15 min, 30 μM (CYP1A1 [5])	CYP1A1 protein expression (Western blot) [6]	GI50 [7]	Hydrolysis of prodrug to parent amine (A498 renal cells; 10 μM, insensitive A498 renal cells, 37°C)	Hydrolysis of prodrug to parent amine (T47D breast cells; 10 μM, sensitive ER+ T47D breast cells, 37°C)	Stability in human plasma [8]	Biotransformation products of liberated parent amine in media (MCF-7 cells)	Structure (SMILES)	Inhibition of CYP1A1 microsome activity (CYP1A1 [4])
induced	17.58 nM resorufin mg^-1 protein	3 days	negligible net removal	3 days	< 0.1 nM	22.6%	not induced	< 0.1 nM	–	–	–	–	Cc1cc(-c2nc3ccccc3s2)ccc1N [Compound 1, 2-(4-amino-3-methylphenyl)benzothiazole]	irreversibly inhibited
–	–	–	–	–	41.6 nM	–	–	67.1 nM	–	–	stable	–	Cc1cc(-c2nc3ccccc3s2)ccc1NC(=O)[C@@H](N)CCCCN [Compound 1b]	–
induced	32.60 nM resorufin mg^-1 protein	–	–	–	0.65 nM	36.4%	not induced	0.73 nM	–	–	–	emergence of an oxidative metabolite	Cc1cc(-c2nc3ccc(F)cc3s2)ccc1N [Compound 3]	–
induced	20.40 nM resorufin mg^-1 protein	–	–	–	43.5 nM	28.9%	–	297 nM	–	–	–	–	Cc1cc(-c2nc3ccc(F)cc3s2)ccc1NC(=O)[C@H](C)N [Compound 3a]	–
induced	20.04 nM resorufin mg^-1 protein	–	–	–	30.7 nM	54.9%	–	302 nM	–	–	–	–	Cc1cc(-c2nc3cc(F)c(F)cc3s2)ccc1NC(=O)[C@@H](N)CCCCN [Compound 4b]	–
